# Laboratory results published in ChEMBL document CHEMBL6153065, “Heterologous Expression and Characterization of Estercin A, a Class II Lanthipeptide Derived from Clostridium estertheticum CF016, with Antimicrobial Activity against Clinically Relevant Pathogens” (2025).
# The source made the active and inactive calls. The calls are words filed in the database; no cut-off is given here. *1 amine or outer side, *2 acyl side, *3 side chain or, on linkers, in order; H or OH if unused. Where a SMILES comes first, the peptide text is derived from it. Bridges are numbered along the chain shown (N, C = ends). [ ]: non-standard residue; d: D form. X1 = O=C([C@@H](N[*:1])[C@H](O)C[*:3])[*:2]; Abu(4-yl) = O=C([C@H](CC[*:3])N[*:1])[*:2]
# What was measured:
# Bacillus cereus [1] = experiment: Antibacterial activity against Bacillus cereus ATCC14579 assessed as inhibition of bacterial growth at 1 mg/ml incubated for 16 hrs by agar well diffusion assay relative to control; format: functional; design: scale not given: the % may be the effect or the level left
# Lactococcus lactis [2] = experiment: Antibacterial activity against Lactococcus lactis MG1363 assessed as inhibition of bacterial growth at 1 mg/ml incubated for 16 hrs by agar well diffusion assay relative to control; format: functional; design: scale not given: the % may be the effect or the level left
# Staphylococcus aureus [3] = experiment: Antibacterial activity against Staphylococcus aureus LMG15975 assessed as inhibition of bacterial growth at 1 mg/ml incubated for 16 hrs by agar well diffusion assay relative to control; format: functional; design: scale not given: the % may be the effect or the level left
# Enterococcus faecium = experiment: Antibacterial activity against vancomycin-resistant Enterococcus faecium LMG16003 assessed as bacterial growth inhibition incubated for 18 hrs by Mueller-Hinton broth based doubling dilution method; format: functional
# Lactococcus lactis [4] = experiment: Antibacterial activity against Lactococcus lactis MG1363 at 1 mg/ml incubated at pH 10 for 4 hrs; format: functional, organism-based
# Lactococcus lactis [5] = experiment: Antibacterial activity against Lactococcus lactis MG1363 at 1 mg/ml incubated at pH 2 for 4 hrs; format: functional, organism-based
# Lactococcus lactis [6] = experiment: Antibacterial activity against Lactococcus lactis MG1363 assessed as bacterial growth inhibition incubated for 18 hrs by Mueller-Hinton broth based doubling dilution method; format: functional
# Lactococcus lactis [7] = experiment: Antibacterial activity against Lactococcus lactis MG1363 at 1 mg/ml incubated at pH 7 for 4 hrs; format: functional, organism-based
# Staphylococcus aureus [8] = experiment: Antibacterial activity against methicillin-resistant Staphylococcus aureus LMG15975 assessed as bacterial growth inhibition incubated for 18 hrs by Mueller-Hinton broth based doubling dilution method; format: functional
# Lactococcus lactis [9] = experiment: Antibacterial activity against Lactococcus lactis MG1363 at 1 mg/ml incubated at pH 4 for 4 hrs; format: functional, organism-based
# Cell membrane = experiment: Induction of membrane permeabilization in Lactococcus lactis MG1363 assessed as pore forming ability by measuring increase in red fluorescence at 2 times MIC measured after 15 mins by SYTO-9 Green dye/red PI staining based fluorescence microscopy; format: subcellular
# Enterococcus faecalis = experiment: Antibacterial activity against vancomycin-resistant Enterococcus faecalis LMG16216 assessed as bacterial growth inhibition incubated for 18 hrs by Mueller-Hinton broth based doubling dilution method; format: functional
# Lactococcus lactis [10] = experiment: Antibacterial activity against Lactococcus lactis MG1363 assessed as bacterial death at 10 times of MIC by time killing assay; format: functional, organism-based
# Clostridium perfringens = experiment: Antibacterial activity against Clostridium perfringens CECT376 assessed as bacterial growth inhibition incubated for 18 hrs by Mueller-Hinton broth based doubling dilution method; format: functional
# Clostridium botulinum = experiment: Antibacterial activity against Clostridium botulinum CECT551 assessed as bacterial growth inhibition incubated for 18 hrs by Mueller-Hinton broth based doubling dilution method; format: functional
# Listeria monocytogenes = experiment: Antibacterial activity against Listeria monocytogenes LMG10470 assessed as bacterial growth inhibition incubated for 18 hrs by Mueller-Hinton broth based doubling dilution method; format: functional
# Bacillus cereus [11] = experiment: Antibacterial activity against Bacillus cereus ATCC14579 assessed as bacterial growth inhibition incubated for 18 hrs by Mueller-Hinton broth based doubling dilution method; format: functional
# Staphylococcus aureus [12] = experiment: Antibacterial activity against Staphylococcus aureus LMG10147 assessed as bacterial growth inhibition incubated for 18 hrs by Mueller-Hinton broth based doubling dilution method; format: functional
# Clostridium tetani = experiment: Antibacterial activity against Clostridium tetani CECT4629 assessed as bacterial growth inhibition incubated for 18 hrs by Mueller-Hinton broth based doubling dilution method; format: functional
# Lactococcus lactis [13] = experiment: Antibacterial activity against Lactococcus lactis MG1363 assessed as inhibition of bacterial growth by measuring increased activity more than estercin A (100%) at 1 mg/ml incubated for 16 hrs by agar well diffusion assay; format: functional; design: scale not given: the % may be the effect or the level left
# Bacillus cereus [14] = experiment: Antibacterial activity against Bacillus cereus ATCC14579 assessed as inhibition of bacterial growth by measuring increased activity more than estercin A (100%) at 1 mg/ml incubated for 16 hrs by agar well diffusion assay; format: functional; design: scale not given: the % may be the effect or the level left
# Lactococcus lactis [15] = experiment: Antibacterial activity against Lactococcus lactis MG1363 at 1 mg/ml incubated for 2 hrs in presence of trypsin by agar plate method; format: functional, organism-based
# Lactococcus lactis [16] = experiment: Antibacterial activity against Lactococcus lactis MG1363 at 1 mg/ml incubated under 55 degreeC for 4 hrs; format: functional, organism-based
# Lactococcus lactis [17] = experiment: Binding affinity to Lactococcus lactis MG1363 lipid II at 8 ug by Spot-on-lawn assay; settings: dose 8.0 µg
# Lactococcus lactis [18] = experiment: Antibacterial activity against Lactococcus lactis MG1363 at 1 mg/ml incubated under 95 degreeC for 4 hrs; format: functional, organism-based
# Lactococcus lactis [19] = experiment: Antibacterial activity against Lactococcus lactis MG1363 at 1 mg/ml incubated under 22 degreeC for 4 hrs; format: functional, organism-based
structure (smiles),measurement,setting,value
C=C1NC(=O)[C@H](C(C)C)NC(=O)[C@@H]2CSC[C@@H](C(=O)N[C@@H](CCCCN)C(=O)O)NC(=O)[C@H](CSC[C@@H]3NC(=O)[C@H](Cc4ccccc4)NC(=O)[C@@H](NC(=O)[C@H](CC(N)=O)NC(=O)[C@@H](NC(=O)[C@@H](NC(=O)CNC(=O)CNC(=O)CN)C(C)C)[C@@H](C)CC)CSC[C@H](NC(=O)[C@H](CCC(=O)O)NC(=O)[C@H](Cc4c[nH]cn4)NC3=O)C(=O)N[C@@H](Cc3ccc(O)cc3)C(=O)N[C@@H](Cc3ccc(O)cc3)C(=O)N[C@@H](CC(N)=O)C(=O)N2)NC(=O)CNC(=O)CNC(=O)[C@H](Cc2c[nH]c3ccccc23)NC(=O)[C@H](CO)NC(=O)[C@H](C)NC(=O)[C@@H]2CCCN2C1=O,Activity,Bacillus cereus [1],100%
same,Activity,Lactococcus lactis [2],100%
same,Activity,Staphylococcus aureus [3],100%
C=C1NC(=O)[C@H](C(C)C)NC(=O)[C@@H]2CSC[C@@H](C(=O)N[C@@H](CCCCN)C(=O)O)NC(=O)[C@H](CSC[C@H]3NC(=O)[C@H](Cc4ccccc4)NC(=O)[C@@H](NC(=O)[C@@H](NC(=O)[C@@H](NC(=O)[C@@H](NC(=O)CNC(=O)CNC(=O)CN)C(C)C)[C@@H](C)CC)[C@@H](C)O)CSC[C@@H](NC(=O)[C@H](CCC(=O)O)NC(=O)[C@H](Cc4c[nH]cn4)NC3=O)C(=O)N[C@@H](Cc3ccc(O)cc3)C(=O)N[C@@H](Cc3ccc(O)cc3)C(=O)N[C@@H](CC(N)=O)C(=O)N2)NC(=O)CNC(=O)[C@H](CO)NC(=O)[C@H](C)NC(=O)[C@@H]2CCCN2C1=O,Activity,Bacillus cereus [1],inactive
same,Activity,Lactococcus lactis [2],inactive
same,Activity,Staphylococcus aureus [3],inactive
C=C(NC(=O)[C@@H](NC(=O)[C@H](Cc1c[nH]cn1)NC(=O)[C@@H](NC(=O)[C@H](CO)NC(=O)[C@@H]1CS[C@@H](C)[C@H]2NC(=O)C(=C)NC(=O)[C@H](NC(=O)[C@H](CCCCN)NC(=O)[C@H](CCSC)NC(=O)[C@H](CC(N)=O)NC(=O)[C@@H]3CS[C@@H](C)[C@@H](NC(=O)[C@H](CCCNN)NC(=O)[C@@H]4CS[C@@H](C)[C@@H](NC(=O)[C@@H]5CSC[C@@H](NC(=O)/C(=C\C)NC(=O)[C@@H](N)[C@@H](C)CC)C(=O)N[C@@H]([C@@H](C)CC)C(=O)NC(=C)C(=O)N[C@@H]([C@@H](C)CC)C(=O)N5)C(=O)N5CCC[C@H]5C(=O)NCC(=O)N4)C(=O)NCC(=O)N[C@@H](C)C(=O)N[C@@H]([C@@H](C)CC)C(=O)N[C@@H](CCSC)C(=O)NCC(=O)N3)[C@H](C)SC[C@H](NC2=O)C(=O)N[C@@H](Cc2c[nH]cn2)C(=O)N1)[C@@H](C)CC)C(C)C)C(=O)N[C@@H](CCCCN)C(=O)O,MIC,Enterococcus faecium,4 µg/mL
same,Activity,Lactococcus lactis [4],Active
same,Activity,Lactococcus lactis [5],Active
same,MIC,Lactococcus lactis [6],0.016 µg/mL
same,Activity,Lactococcus lactis [7],Active
same,MIC,Staphylococcus aureus [8],4 µg/mL
same,Activity,Lactococcus lactis [9],Active
same,Activity,Cell membrane,Active
same,MIC,Enterococcus faecalis,4 µg/mL
same,Activity,Lactococcus lactis [10],Active; Rapid Cell Death Observed
same,MIC,Clostridium perfringens,1 µg/mL
same,MIC,Clostridium botulinum,4 µg/mL
same,MIC,Listeria monocytogenes,8 µg/mL
same,MIC,Bacillus cereus [11],4 µg/mL
same,MIC,Staphylococcus aureus [12],16 µg/mL
same,MIC,Clostridium tetani,4 µg/mL
C=C1NC(=O)[C@H](C(C)C)NC(=O)[C@@H]2CSC[C@@H](C(=O)N[C@@H](CCCCN)C(=O)O)NC(=O)[C@H](CSC[C@H]3NC(=O)[C@H](Cc4ccccc4)NC(=O)[C@@H](NC(=O)[C@@H](NC(=O)[C@@H](NC(=O)[C@@H](NC(=O)CNC(=O)CNC(=O)CN)C(C)C)[C@@H](C)CC)[C@@H](C)O)CSC[C@H](NC(=O)[C@H](CCC(=O)O)NC(=O)[C@H](Cc4c[nH]cn4)NC3=O)C(=O)N[C@@H](Cc3ccc(O)cc3)C(=O)N[C@@H](Cc3ccc(O)cc3)C(=O)N[C@@H](CC(N)=O)C(=O)N2)NC(=O)[C@H]([C@@H](C)O)NC(=O)CNC(=O)[C@H](Cc2c[nH]c3ccccc23)NC(=O)[C@H](CO)NC(=O)[C@H](C)NC(=O)[C@@H]2CCCN2C1=O,Activity,Bacillus cereus [1],inactive
same,Activity,Lactococcus lactis [2],inactive
same,Activity,Staphylococcus aureus [3],inactive
"CC[C@H](C)[C@H](NC(=O)[C@@H](NC(=O)[C@H](CCCCN)NC(=O)[C@H](CC(C)C)NC(=O)[C@@H](NC(=O)CNC(=O)[C@H](CC(N)=O)NC(=O)CN)C(C)C)[C@@H](C)O)C(=O)N[C@H]1CCSC[C@@H]2NC(=O)[C@@H](NC(=O)[C@H](Cc3ccccc3)NC(=O)[C@H](CC(C)C)NC(=O)[C@H](Cc3ccccc3)NC(=O)[C@H](CCC(N)=O)NC(=O)[C@H](Cc3c[nH]c4ccccc34)NC(=O)[C@H]([C@@H](C)O)NC(=O)[C@H](CC(N)=O)NC(=O)[C@H](CCSC)NC(=O)[C@H](CC(N)=O)NC(=O)[C@H](CS)NC(=O)[C@H](CCC(=O)O)NC(=O)[C@H](Cc3c[nH]cn3)NC1=O)[C@H](O)CSC[C@@H](C(=O)O)NC2=O (H-GNGVLKTI[Abu(4-yl)]HECNMNTWQFLF[X1]CC-OH; thioether 9-23, 22-24)",MIC,Clostridium perfringens,75 µg/mL
C=C1NC(=O)[C@H](C(C)C)NC(=O)[C@@H]2CSC[C@@H](C(=O)N[C@@H](CCCCN)C(=O)O)NC(=O)[C@H](CSC[C@@H]3NC(=O)[C@H](Cc4ccccc4)NC(=O)[C@@H](NC(=O)[C@@H](NC(=O)[C@@H](NC(=O)[C@@H](NC(=O)CNC(=O)[C@H](CC(N)=O)NC(=O)CN)C(C)C)[C@@H](C)CC)[C@@H](C)O)CSC[C@H](NC(=O)[C@H](CCC(=O)O)NC(=O)[C@H](Cc4c[nH]cn4)NC3=O)C(=O)N[C@@H](Cc3ccc(O)cc3)C(=O)N[C@@H](Cc3ccc(O)cc3)C(=O)N[C@@H](CC(N)=O)C(=O)N2)NC(=O)CNC(=O)CNC(=O)[C@H](Cc2c[nH]c3ccccc23)NC(=O)[C@H](CO)NC(=O)[C@H](C)NC(=O)[C@@H]2CCCN2C1=O,Activity,Staphylococcus aureus [3],100%
same,Activity,Lactococcus lactis [13],20%
same,Activity,Bacillus cereus [14],20%
C=C1NC(=O)[C@H](C(C)C)NC(=O)[C@@H]2CSC[C@@H](C(=O)N[C@@H](CCCCN)C(=O)O)NC(=O)[C@H](CSC[C@@H]3NC(=O)[C@H](Cc4ccccc4)NC(=O)[C@@H](NC(=O)[C@@H](NC(=O)[C@@H](NC(=O)[C@@H](NC(=O)CNC(=O)CNC(=O)CN)C(C)C)[C@@H](C)CC)[C@@H](C)O)CSC[C@H](NC(=O)[C@H](CCC(=O)O)NC(=O)[C@H](Cc4c[nH]cn4)NC3=O)C(=O)N[C@@H](Cc3ccc(O)cc3)C(=O)N[C@@H](Cc3ccc(O)cc3)C(=O)N[C@@H](CC(N)=O)C(=O)N2)NC(=O)CNC(=O)CNC(=O)[C@H](Cc2c[nH]c3ccccc23)NC(=O)[C@H](CO)NC(=O)[C@H](C)NC(=O)[C@@H]2CCCN2C1=O,MIC,Enterococcus faecium,64 µg/mL
same,Activity,Lactococcus lactis [4],Active
same,Activity,Lactococcus lactis [5],Active
same,MIC,Lactococcus lactis [6],4 µg/mL
same,Activity,Lactococcus lactis [7],Active
same,Activity,Lactococcus lactis [15],Active; More Resistant Compared To Nisin
same,Activity,Lactococcus lactis [16],inactive
same,MIC,Staphylococcus aureus [8],4 µg/mL
same,Activity,Lactococcus lactis [9],Active
same,Activity,Cell membrane,Not active; Only Green Fluorescence Observed
same,Activity,Bacillus cereus [1],100%
same,Activity,Lactococcus lactis [2],100%
same,MIC,Enterococcus faecalis,64 µg/mL
same,Activity,Lactococcus lactis [10],Not active; Slower Rate Of Killing Observed
same,MIC,Clostridium perfringens,1 µg/mL
same,MIC,Clostridium botulinum,32 µg/mL
same,Activity,Lactococcus lactis [17],Active
same,MIC,Listeria monocytogenes,> 64 µg/mL
same,Activity,Staphylococcus aureus [3],100%
same,MIC,Bacillus cereus [11],8 µg/mL
same,MIC,Staphylococcus aureus [12],16 µg/mL
same,MIC,Clostridium tetani,4 µg/mL
same,Activity,Lactococcus lactis [18],Not active; Less Than 30% Reduction In Activity Observed Relative To Control
same,Activity,Lactococcus lactis [19],inactive
